Ki data for 2 molecules are collected here from ChEMBL document CHEMBL1130747, “Synthesis of novel cyclic protease inhibitors using Grubbs olefin metathesis” (Bioorg Med Chem Lett, 1998).

In the assay the target is T1, Rhizopuspepsin (Rhizopus microsporus var. chinensis, UniProt P06026).
T1 sequence (P06026 whole entry): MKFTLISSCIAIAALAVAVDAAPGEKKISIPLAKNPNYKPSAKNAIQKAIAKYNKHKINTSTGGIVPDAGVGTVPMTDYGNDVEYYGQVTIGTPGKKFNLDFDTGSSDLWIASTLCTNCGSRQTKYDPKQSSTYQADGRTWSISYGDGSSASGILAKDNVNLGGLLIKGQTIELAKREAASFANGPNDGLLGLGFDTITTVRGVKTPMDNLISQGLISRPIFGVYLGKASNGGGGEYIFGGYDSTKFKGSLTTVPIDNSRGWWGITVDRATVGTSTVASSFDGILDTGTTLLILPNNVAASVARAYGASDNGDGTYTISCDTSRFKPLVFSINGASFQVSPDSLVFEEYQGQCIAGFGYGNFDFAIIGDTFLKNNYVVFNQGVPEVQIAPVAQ
Put plainly: Inhibition of Rhizopus chinensis pepsin using fluorescence assay.

On to `CC(C)[C@H]1NC(=O)[C@H](NC(=O)OC(C)(C)C)CCCCCCCC[C@H](CO)NC1=O`, for which the Ki was 1.31 nM. That is a single-digit nanomolar value.

For the molecule `CC(C)[C@H]1NC(=O)[C@H](NC(=O)OC(C)(C)C)CCC/C=C\CCC[C@H](CO)NC1=O`, the Ki was found to be 336 nM.
